Values after ≈ are worked out from the molar mass of the structure shown.
System: Mannheimia haemolytica MH 6374 (ATCC 33396, reference strain)
Experiment: MIC, broth-microdilution (CLSI VET01-A4)
Assay type: cell-based
Details: Mannheimia haemolytica MH 6374; read-out: MIC MH 6374
Summary of the method: (§1)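 MIC values follow CLSI VET01-S3 interpretation, scored as the lowest concentration free of visible turbidity within a doubling dilution series in microdilution trays.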

| Compound | MIC |
| --- | --- |
| CSC(C)(C)[C@H](NC(=O)c1ccc(C#Cc2ccc(CNCc3ccnc(Cl)c3)cc2)cc1)C(=O)NO [Compound 594] | 1.6 µM (≈ 0.859 µg/mL) |
| CC(C)(N)C(NC(=O)c1ccc(C#Cc2ccc(CNCc3ccnc(Cl)c3)cc2)cc1)C(=O)NO (racemic) [Compound 313] | 0.8 µM (≈ 0.405 µg/mL) |
| CC(C)([C@H](NC(=O)c1ccc(C#Cc2ccc(CNCc3cccs3)cc2)cc1)C(=O)NO)S(C)(=O)=O [Compound 617] | 0.2 µM (≈ 0.108 µg/mL) |
| CC(C)C(NC(=O)c1ccc(C#Cc2ccc(CNCc3cccs3)cc2)cc1)C(=O)NO (centres unmarked) [Compound 291] | 0.4 µM (≈ 0.185 µg/mL) |
| CC(C)(N)C(NC(=O)c1ccc(C#Cc2ccc(CNCc3ccc(F)cc3)s2)cc1)C(=O)NO (racemic) [Compound 637] | 0.4 µM (≈ 0.198 µg/mL) |

System: Pasteurella multocida PM 12080 (IV102277-0093, BRD field isolate)
Experiment: MIC, broth-microdilution (CLSI VET01-A4)
Assay type: cell-based
Details: Pasteurella multocida PM 12080
Summary of the method: as §1

| Compound | MIC PM 12080 |
| --- | --- |
| CC(C)(N)C(NC(=O)c1ccc(C#Cc2ccc(CNCc3ccnc(Cl)c3)cc2)cc1)C(=O)NO (racemic) [Compound 313] | <=0.1 μM |
| CC(C)([C@H](NC(=O)c1ccc(C#Cc2ccc(CNCc3cccs3)cc2)cc1)C(=O)NO)S(C)(=O)=O [Compound 617] | <=0.1 μM |
| CC(C)C(NC(=O)c1ccc(C#Cc2ccc(CNCc3cccs3)cc2)cc1)C(=O)NO (centres unmarked) [Compound 291] | <=0.1 μM |

Same assay, conditions: Pasteurella multocida PM 12080; read-out: MIC PM 12080

| Compound | MIC |
| --- | --- |
| CSC(C)(C)[C@H](NC(=O)c1ccc(C#Cc2ccc(CNCc3ccnc(Cl)c3)cc2)cc1)C(=O)NO [Compound 594] | 0.8 µM (≈ 0.43 µg/mL) |
| CC(C)(N)C(NC(=O)c1ccc(C#Cc2ccc(CNCc3ccc(F)cc3)s2)cc1)C(=O)NO (racemic) [Compound 637] | 0.2 µM (≈ 0.0989 µg/mL) |

System: Pasteurella multocida PM 6391 (ATCC 43137, reference strain)
Experiment: MIC, broth-microdilution (CLSI VET01-A4)
Assay type: cell-based
Details: Pasteurella multocida PM 6391
Summary of the method: as §1

| Compound | MIC PM 6391 |
| --- | --- |
| CC(C)(N)C(NC(=O)c1ccc(C#Cc2ccc(CNCc3ccnc(Cl)c3)cc2)cc1)C(=O)NO (racemic) [Compound 313] | <=0.1 μM |
| CC(C)([C@H](NC(=O)c1ccc(C#Cc2ccc(CNCc3cccs3)cc2)cc1)C(=O)NO)S(C)(=O)=O [Compound 617] | <=0.1 μM |

Same assay, conditions: Pasteurella multocida PM 6391; read-out: MIC PM 6391

| Compound | MIC |
| --- | --- |
| CSC(C)(C)[C@H](NC(=O)c1ccc(C#Cc2ccc(CNCc3ccnc(Cl)c3)cc2)cc1)C(=O)NO [Compound 594] | 0.8 µM (≈ 0.43 µg/mL) |
| CC(C)C(NC(=O)c1ccc(C#Cc2ccc(CNCc3cccs3)cc2)cc1)C(=O)NO (centres unmarked) [Compound 291] | 0.2 µM (≈ 0.0923 µg/mL) |
| CC(C)(N)C(NC(=O)c1ccc(C#Cc2ccc(CNCc3ccc(F)cc3)s2)cc1)C(=O)NO (racemic) [Compound 637] | 0.4 µM (≈ 0.198 µg/mL) |

System: Pasteurella multocida PM 6267 (P 2225 (L386), reference strain, mouse infection strain)
Experiment: MIC, broth-microdilution (CLSI VET01-A4)
Assay type: cell-based
Details: Pasteurella multocida PM 6267
Summary of the method: as §1

| Compound | MIC PM 6267 |
| --- | --- |
| CC(C)(N)C(NC(=O)c1ccc(C#Cc2ccc(CNCc3ccnc(Cl)c3)cc2)cc1)C(=O)NO (racemic) [Compound 313] | <=0.1 μM |
| CC(C)([C@H](NC(=O)c1ccc(C#Cc2ccc(CNCc3cccs3)cc2)cc1)C(=O)NO)S(C)(=O)=O [Compound 617] | <=0.1 μM |
| CC(C)C(NC(=O)c1ccc(C#Cc2ccc(CNCc3cccs3)cc2)cc1)C(=O)NO (centres unmarked) [Compound 291] | <=0.1 μM |
| CC(C)(N)C(NC(=O)c1ccc(C#Cc2ccc(CNCc3ccc(F)cc3)s2)cc1)C(=O)NO (racemic) [Compound 637] | <=0.1 μM |

Same assay, conditions: Pasteurella multocida PM 6267; read-out: MIC PM 6267

| Compound | MIC |
| --- | --- |
| CSC(C)(C)[C@H](NC(=O)c1ccc(C#Cc2ccc(CNCc3ccnc(Cl)c3)cc2)cc1)C(=O)NO [Compound 594] | 0.4 µM (≈ 0.215 µg/mL) |

System: Pasteurella multocida PM 10775 (080130003051, BRD field isolate)
Experiment: MIC, broth-microdilution (CLSI VET01-A4)
Assay type: cell-based
Details: Pasteurella multocida PM 10775
Summary of the method: as §1

| Compound | MIC PM 10775 |
| --- | --- |
| CC(C)([C@H](NC(=O)c1ccc(C#Cc2ccc(CNCc3cccs3)cc2)cc1)C(=O)NO)S(C)(=O)=O [Compound 617] | <=0.1 μM |
| CC(C)C(NC(=O)c1ccc(C#Cc2ccc(CNCc3cccs3)cc2)cc1)C(=O)NO (centres unmarked) [Compound 291] | <=0.1 μM |

Same assay, conditions: Pasteurella multocida PM 10775; read-out: MIC PM 10775

| Compound | MIC |
| --- | --- |
| CSC(C)(C)[C@H](NC(=O)c1ccc(C#Cc2ccc(CNCc3ccnc(Cl)c3)cc2)cc1)C(=O)NO [Compound 594] | 0.2 µM (≈ 0.107 µg/mL) |
| CC(C)(N)C(NC(=O)c1ccc(C#Cc2ccc(CNCc3ccnc(Cl)c3)cc2)cc1)C(=O)NO (racemic) [Compound 313] | 0.2 µM (≈ 0.101 µg/mL) |
| CC(C)(N)C(NC(=O)c1ccc(C#Cc2ccc(CNCc3ccc(F)cc3)s2)cc1)C(=O)NO (racemic) [Compound 637] | 0.2 µM (≈ 0.0989 µg/mL) |

System: Mannheimia haemolytica MH 12587 (1071, BRD field isolate, macrolide-resistance: erm+, E+)
Experiment: MIC, broth-microdilution (CLSI VET01-A4)
Assay type: cell-based
Details: Mannheimia haemolytica MH 12587, macrolide-resistant
Summary of the method: as §1

| Compound | MIC MH 12587 |
| --- | --- |
| CSC(C)(C)[C@H](NC(=O)c1ccc(C#Cc2ccc(CNCc3ccnc(Cl)c3)cc2)cc1)C(=O)NO [Compound 594] | 1.6 µM (≈ 0.859 µg/mL) |
| CC(C)(N)C(NC(=O)c1ccc(C#Cc2ccc(CNCc3ccnc(Cl)c3)cc2)cc1)C(=O)NO (racemic) [Compound 313] | 1.6 µM (≈ 0.81 µg/mL) |
| CC(C)([C@H](NC(=O)c1ccc(C#Cc2ccc(CNCc3cccs3)cc2)cc1)C(=O)NO)S(C)(=O)=O [Compound 617] | 0.8 µM (≈ 0.432 µg/mL) |
| CC(C)C(NC(=O)c1ccc(C#Cc2ccc(CNCc3cccs3)cc2)cc1)C(=O)NO (centres unmarked) [Compound 291] | 0.8 µM (≈ 0.369 µg/mL) |
| CC(C)(N)C(NC(=O)c1ccc(C#Cc2ccc(CNCc3ccc(F)cc3)s2)cc1)C(=O)NO (racemic) [Compound 637] | 1.6 µM (≈ 0.791 µg/mL) |

System: Mannheimia haemolytica MH 6357 (M7/2, reference strain, cattle infection strain)
Experiment: MIC, broth-microdilution (CLSI VET01-A4)
Assay type: cell-based
Details: Mannheimia haemolytica MH 6357; read-out: MIC MH 6357
Summary of the method: as §1

| Compound | MIC |
| --- | --- |
| CSC(C)(C)[C@H](NC(=O)c1ccc(C#Cc2ccc(CNCc3ccnc(Cl)c3)cc2)cc1)C(=O)NO [Compound 594] | 1.6 µM (≈ 0.859 µg/mL) |
| CC(C)(N)C(NC(=O)c1ccc(C#Cc2ccc(CNCc3ccnc(Cl)c3)cc2)cc1)C(=O)NO (racemic) [Compound 313] | 0.8 µM (≈ 0.405 µg/mL) |
| CC(C)([C@H](NC(=O)c1ccc(C#Cc2ccc(CNCc3cccs3)cc2)cc1)C(=O)NO)S(C)(=O)=O [Compound 617] | 0.4 µM (≈ 0.216 µg/mL) |
| CC(C)C(NC(=O)c1ccc(C#Cc2ccc(CNCc3cccs3)cc2)cc1)C(=O)NO (centres unmarked) [Compound 291] | 0.2 µM (≈ 0.0923 µg/mL) |
| CC(C)(N)C(NC(=O)c1ccc(C#Cc2ccc(CNCc3ccc(F)cc3)s2)cc1)C(=O)NO (racemic) [Compound 637] | 0.8 µM (≈ 0.396 µg/mL) |

System: Mannheimia haemolytica MH 10720 (154, BRD field isolate)
Experiment: MIC, broth-microdilution (CLSI VET01-A4)
Assay type: cell-based
Details: Mannheimia haemolytica MH 10720
Summary of the method: as §1

| Compound | MIC MH 10720 |
| --- | --- |
| CC(C)([C@H](NC(=O)c1ccc(C#Cc2ccc(CNCc3cccs3)cc2)cc1)C(=O)NO)S(C)(=O)=O [Compound 617] | <=0.1 μM |
| CC(C)C(NC(=O)c1ccc(C#Cc2ccc(CNCc3cccs3)cc2)cc1)C(=O)NO (centres unmarked) [Compound 291] | <=0.1 μM |
| CC(C)(N)C(NC(=O)c1ccc(C#Cc2ccc(CNCc3ccc(F)cc3)s2)cc1)C(=O)NO (racemic) [Compound 637] | <=0.1 μM |

Same assay, conditions: Mannheimia haemolytica MH 10720; read-out: MIC MH 10720

| Compound | MIC |
| --- | --- |
| CSC(C)(C)[C@H](NC(=O)c1ccc(C#Cc2ccc(CNCc3ccnc(Cl)c3)cc2)cc1)C(=O)NO [Compound 594] | 0.4 µM (≈ 0.215 µg/mL) |
| CC(C)(N)C(NC(=O)c1ccc(C#Cc2ccc(CNCc3ccnc(Cl)c3)cc2)cc1)C(=O)NO (racemic) [Compound 313] | 0.4 µM (≈ 0.202 µg/mL) |

System: Mannheimia haemolytica MH 13065 (XB0446-6003.9, BRD field isolate)
Experiment: MIC, broth-microdilution (CLSI VET01-A4)
Assay type: cell-based
Details: not given
Summary of the method: (§2)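 Broth microdilution per CLSI VET01-A4 using doubling dilution series of compound. MIC taken as the lowest concentration with no turbidity visible to the unaided eye, interpreted per CLSI VET01-S3.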

| Compound | MIC |
| --- | --- |
| CSC(C)(C)[C@H](NC(=O)c1ccc(C#Cc2ccc(CNCc3ccnc(Cl)c3)cc2)cc1)C(=O)NO [Compound 594] | 1.6 µM (≈ 0.859 µg/mL) |
| CC(C)(N)C(NC(=O)c1ccc(C#Cc2ccc(CNCc3ccnc(Cl)c3)cc2)cc1)C(=O)NO (racemic) [Compound 313] | 1.6 µM (≈ 0.81 µg/mL) |
| CC(C)([C@H](NC(=O)c1ccc(C#Cc2ccc(CNCc3cccs3)cc2)cc1)C(=O)NO)S(C)(=O)=O [Compound 617] | 0.2 µM (≈ 0.108 µg/mL) |
| CC(C)C(NC(=O)c1ccc(C#Cc2ccc(CNCc3cccs3)cc2)cc1)C(=O)NO (centres unmarked) [Compound 291] | 0.2 µM (≈ 0.0923 µg/mL) |
| CC(C)(N)C(NC(=O)c1ccc(C#Cc2ccc(CNCc3ccc(F)cc3)s2)cc1)C(=O)NO (racemic) [Compound 637] | 1.6 µM (≈ 0.791 µg/mL) |

System: Mannheimia haemolytica MH 13093 (XB0472-6014.1, BRD field isolate)
Experiment: MIC, broth-microdilution (CLSI VET01-A4)
Assay type: cell-based
Details: not given
Summary of the method: as §2

| Compound | MIC |
| --- | --- |
| CSC(C)(C)[C@H](NC(=O)c1ccc(C#Cc2ccc(CNCc3ccnc(Cl)c3)cc2)cc1)C(=O)NO [Compound 594] | 1.6 µM (≈ 0.859 µg/mL) |
| CC(C)(N)C(NC(=O)c1ccc(C#Cc2ccc(CNCc3ccnc(Cl)c3)cc2)cc1)C(=O)NO (racemic) [Compound 313] | 1.6 µM (≈ 0.81 µg/mL) |
| CC(C)([C@H](NC(=O)c1ccc(C#Cc2ccc(CNCc3cccs3)cc2)cc1)C(=O)NO)S(C)(=O)=O [Compound 617] | 0.4 µM (≈ 0.216 µg/mL) |
| CC(C)C(NC(=O)c1ccc(C#Cc2ccc(CNCc3cccs3)cc2)cc1)C(=O)NO (centres unmarked) [Compound 291] | 0.4 µM (≈ 0.185 µg/mL) |
| CC(C)(N)C(NC(=O)c1ccc(C#Cc2ccc(CNCc3ccc(F)cc3)s2)cc1)C(=O)NO (racemic) [Compound 637] | 0.8 µM (≈ 0.396 µg/mL) |

Source: patent US20230000813A1, “COMPOUND FOR THE TREATMENT OF BOVINE OR SWINE RESPIRATORY DISEASE” (Intervet Inc., priority 2016, published 2023)
